In article PMC6522510 (Nature Communications, 2019):

What was measured:
Design in all cases: species or system AML cell lines (8); Primary HTS, single concentration about 10 uM, Cell Titer Glo viability; log10 luminescence, per cent inhibition relative to cycloheximide control
Settings in all cases: 72 h, relative to cycloheximide control, log10 luminescence; inhibitor
[1] = tested on: CMS
[2] = tested on: MOLM-13
[3] = tested on: CMK
[4] = tested on: U937
[5] = tested on: MV4-11
[6] = tested on: CHRF288-11
[7] = tested on: ML-2
[8] = tested on: M07e

SMILES	CMS %inh [1]	MOLM-13 %inh [2]	CMK %inh [3]	U937 %inh [4]	MV4-11 %inh [5]	CHRF288-11 %inh [6]	ML-2 %inh [7]	M07e %inh [8]
C[C@@H](Oc1cc(-n2cnc3ccc(OCC4CCN(C)CC4)cc32)sc1C(N)=O)c1ccccc1Cl [SJ000573039-1, U21976/12/1]	55.73%	92.23%	58.58%	67.65%	68.81%	126.6%	55.39%	70.45%
COc1cc(C)c(NC(=O)CN(C)C)cc1Nc1nc(Nc2cccc(F)c2C(N)=O)c2cc[nH]c2n1 [SJ000573040-1, N5326-72-2]	31.36%	90.07%	111.2%	70.41%	56.47%	60.84%	42.89%	103.3%
Nc1ccc(C#Cc2cncnc2Nc2ccc(OCc3cccc(F)c3)c(Cl)c2)cc1 [SJ000573041-1, U17810/18/1]	3.795%	7.505%	13.47%	3.684%	4.494%	2.448%	5.257%	8.047%
COc1cc(C)c(N(C)C(=O)CN(C)C)cc1Nc1nc(Nc2cccc(F)c2C(N)=O)c2cc[nH]c2n1 [SJ000573042-1, N5326-79-1]	1.596%	-1.115%	3.967%	-0.591%	3.146%	20.31%	14.99%	-1.728%
COc1cc2c(cc1Nc1nc(N3CCc4ccccc43)c3cc[nH]c3n1)N(C(=O)CN(C)C)CC2 [SJ000573043-1, N7699-100-1]	96.79%	9.876%	123.9%	74.23%	75.42%	128.5%	54.96%	130.8%
COc1cc2c(cc1Nc1nc(Nc3ccsc3C(N)=O)c3cc[nH]c3n1)N(C(=O)CN(C)C)CCC2 [SJ000573044-1, N3343-60-3]	65.93%	89.42%	100.5%	74.84%	66.76%	98.1%	41.91%	106%
Nc1ncnc2occ(-c3ccc(NC(=O)Nc4cccc(C(F)(F)F)c4)cc3)c12 [SJ000573045-1, CL210513-033A3]	11.5%	88.68%	22.69%	26.65%	73.96%	45.6%	6.046%	17.9%
CCn1c(-c2nonc2N)nc2cncc(C(=O)NCCNC)c21 [SJ000573046-1, FIDE/U1002/66/2]	12.48%	9.392%	39.87%	25.48%	47.15%	15.2%	17.45%	12.62%
CCn1c(-c2nonc2N)nc2cncc(C(=O)N3CCNCC3)c21 [SJ000573047-1, TP100582-069A1]	1.245%	0.2835%	-1.515%	1.348%	2.106%	-1.797%	1.727%	4.058%
